# Literature values, collected in patent publication US7678905B2, “Aminotetrahydropyrans as dipeptidyl peptidase-IV inhibitors for the treatment or prevention of diabetes” (Merck Sharp & Dohme Corp., priority 2006, dated 2010).
# Tests used:
# cardiac allograft = conditions: rats; survival doubled from day 7
# hematopoiesis = conditions: mouse, cyclophosphamide-induced neutropenia
# [1] = tested on: GRF degradation in plasma
compound,measurement,setting,value
"CC(C)N1CCC(c2ccccc2)(c2ccccc2)CC1 [Prodipine, Pro-Pro-diphenyl-phosphonate]",cardiac allograft survival,cardiac allograft,14 day
CC(C)[C@H](N)C(=O)N1CCC[C@H]1B(O)O [Val-Boro-Pro],effect on hematopoiesis,hematopoiesis,stimulated hematopoiesis
diprotin A,degradation of GRF to GRF[3-44] in plasma,[1],prevented
